Results on ten compounds are retold here after US12492188B2, “1H-benzo[D]imidazole derivatives as TLR9 inhibitors for the treatment of fibrosis” (BRISTOL-MYERS SQUIBB COMPANY, priority 2020, dated 2025).

Each structure is given as a SMILES string. Where two headings read alike, the source gives them in different places. Where only a bound is given, the exact number is not on record here.

Holding throughout (format): cell-based
One experiment deals with T1, human TLR8 (Homo sapiens, UniProt Q9NR97).
T1 construct: host or cells: HEK-Blue cells (HEK293-derived reporter line)
T1 sequence (Q9NR97 27-1041): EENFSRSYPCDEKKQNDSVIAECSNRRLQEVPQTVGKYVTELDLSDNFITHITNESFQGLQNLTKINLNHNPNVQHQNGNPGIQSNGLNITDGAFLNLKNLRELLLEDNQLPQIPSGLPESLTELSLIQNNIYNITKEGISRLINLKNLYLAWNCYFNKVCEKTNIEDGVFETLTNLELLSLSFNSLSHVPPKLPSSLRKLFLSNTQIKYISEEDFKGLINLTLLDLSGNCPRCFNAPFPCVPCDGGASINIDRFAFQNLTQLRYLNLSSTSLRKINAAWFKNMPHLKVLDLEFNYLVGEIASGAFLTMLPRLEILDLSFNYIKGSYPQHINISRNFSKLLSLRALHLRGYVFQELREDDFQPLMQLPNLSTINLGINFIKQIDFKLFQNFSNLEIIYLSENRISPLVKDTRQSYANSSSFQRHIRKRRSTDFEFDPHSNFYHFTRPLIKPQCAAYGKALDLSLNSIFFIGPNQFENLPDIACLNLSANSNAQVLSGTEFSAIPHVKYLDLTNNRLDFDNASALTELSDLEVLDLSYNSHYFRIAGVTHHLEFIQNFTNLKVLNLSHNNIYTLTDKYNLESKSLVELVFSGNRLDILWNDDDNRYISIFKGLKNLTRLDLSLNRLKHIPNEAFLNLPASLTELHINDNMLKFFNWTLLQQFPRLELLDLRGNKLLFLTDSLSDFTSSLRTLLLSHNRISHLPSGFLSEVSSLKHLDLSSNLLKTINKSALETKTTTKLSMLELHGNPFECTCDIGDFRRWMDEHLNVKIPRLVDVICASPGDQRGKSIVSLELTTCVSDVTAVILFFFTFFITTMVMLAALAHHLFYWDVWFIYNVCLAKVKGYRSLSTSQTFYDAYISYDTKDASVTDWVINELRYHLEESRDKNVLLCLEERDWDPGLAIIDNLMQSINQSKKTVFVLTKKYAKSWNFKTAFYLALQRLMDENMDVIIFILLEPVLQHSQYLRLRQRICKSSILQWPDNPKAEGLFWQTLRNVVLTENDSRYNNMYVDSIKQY
Briefly: TLR8 inhibition reporter assay (HEK-Blue cells, secreted embryonic alkaline phosphatase reporter). The conditions noted are these: HEK-Blue cells overexpressing human TLR8, stimulated with R848 15.9 μM; read-out: TLR 8 IC50. The essentials: (§1)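 HEK-Blue cells expressing human TLR7, TLR8 or TLR9 with an NF-κB/AP-1-driven SEAP reporter were pretreated with compound (0.05 nM–50 μM final) for 30 min at room temperature. Agonists were gardiquimod 7.5 μM for TLR7, R848 15.9 μM for TLR8 and ODN2006 5 nM for TLR9. SEAP was read after 22 h at 37 °C, and inhibition was calculated relative to agonist-plus-DMSO and known-inhibitor controls.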
On the technique in general: In a reporter assay the amount or activity of a reporter protein is the signal.

For another experiment, the target named is T2, human TLR9 (Homo sapiens, UniProt Q9NR96).
T2 construct: host or cells: HEK-Blue cells (HEK293-derived reporter line)
T2 sequence (Q9NR96 26-1032): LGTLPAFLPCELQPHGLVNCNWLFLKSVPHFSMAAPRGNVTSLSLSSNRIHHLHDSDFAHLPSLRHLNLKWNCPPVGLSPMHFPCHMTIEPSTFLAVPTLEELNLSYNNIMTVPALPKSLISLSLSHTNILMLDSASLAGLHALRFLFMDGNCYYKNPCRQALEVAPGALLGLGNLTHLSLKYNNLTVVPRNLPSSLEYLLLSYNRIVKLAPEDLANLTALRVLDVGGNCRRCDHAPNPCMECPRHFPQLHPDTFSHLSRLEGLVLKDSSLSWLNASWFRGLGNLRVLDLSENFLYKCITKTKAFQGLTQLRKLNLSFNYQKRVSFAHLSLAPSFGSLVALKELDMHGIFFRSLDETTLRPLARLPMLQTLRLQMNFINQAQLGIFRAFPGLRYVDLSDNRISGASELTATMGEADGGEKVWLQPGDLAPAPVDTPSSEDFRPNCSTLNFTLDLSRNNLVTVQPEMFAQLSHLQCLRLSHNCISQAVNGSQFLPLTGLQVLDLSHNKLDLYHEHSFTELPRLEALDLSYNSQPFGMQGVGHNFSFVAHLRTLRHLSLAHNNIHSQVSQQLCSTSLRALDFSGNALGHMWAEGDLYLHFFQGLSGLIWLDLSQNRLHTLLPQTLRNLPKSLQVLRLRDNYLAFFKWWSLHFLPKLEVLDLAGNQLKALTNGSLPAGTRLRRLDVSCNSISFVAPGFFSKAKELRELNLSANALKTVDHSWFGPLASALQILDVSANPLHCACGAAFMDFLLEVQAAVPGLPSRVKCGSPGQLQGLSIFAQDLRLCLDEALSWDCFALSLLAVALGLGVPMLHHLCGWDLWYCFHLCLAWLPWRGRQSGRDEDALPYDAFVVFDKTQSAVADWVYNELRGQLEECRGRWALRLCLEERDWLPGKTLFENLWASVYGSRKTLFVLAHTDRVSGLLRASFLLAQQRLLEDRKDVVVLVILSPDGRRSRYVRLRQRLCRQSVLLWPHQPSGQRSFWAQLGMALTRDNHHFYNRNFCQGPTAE
The experiment in a line: TLR9 inhibition reporter assay (HEK-Blue cells, secreted embryonic alkaline phosphatase reporter). The gist of the method:
as §1

The target of another experiment is T3, human TLR7 (Homo sapiens, UniProt Q9NYK1).
T3 construct: host or cells: HEK-Blue cells (HEK293-derived reporter line)
T3 sequence (Q9NYK1 27-1049): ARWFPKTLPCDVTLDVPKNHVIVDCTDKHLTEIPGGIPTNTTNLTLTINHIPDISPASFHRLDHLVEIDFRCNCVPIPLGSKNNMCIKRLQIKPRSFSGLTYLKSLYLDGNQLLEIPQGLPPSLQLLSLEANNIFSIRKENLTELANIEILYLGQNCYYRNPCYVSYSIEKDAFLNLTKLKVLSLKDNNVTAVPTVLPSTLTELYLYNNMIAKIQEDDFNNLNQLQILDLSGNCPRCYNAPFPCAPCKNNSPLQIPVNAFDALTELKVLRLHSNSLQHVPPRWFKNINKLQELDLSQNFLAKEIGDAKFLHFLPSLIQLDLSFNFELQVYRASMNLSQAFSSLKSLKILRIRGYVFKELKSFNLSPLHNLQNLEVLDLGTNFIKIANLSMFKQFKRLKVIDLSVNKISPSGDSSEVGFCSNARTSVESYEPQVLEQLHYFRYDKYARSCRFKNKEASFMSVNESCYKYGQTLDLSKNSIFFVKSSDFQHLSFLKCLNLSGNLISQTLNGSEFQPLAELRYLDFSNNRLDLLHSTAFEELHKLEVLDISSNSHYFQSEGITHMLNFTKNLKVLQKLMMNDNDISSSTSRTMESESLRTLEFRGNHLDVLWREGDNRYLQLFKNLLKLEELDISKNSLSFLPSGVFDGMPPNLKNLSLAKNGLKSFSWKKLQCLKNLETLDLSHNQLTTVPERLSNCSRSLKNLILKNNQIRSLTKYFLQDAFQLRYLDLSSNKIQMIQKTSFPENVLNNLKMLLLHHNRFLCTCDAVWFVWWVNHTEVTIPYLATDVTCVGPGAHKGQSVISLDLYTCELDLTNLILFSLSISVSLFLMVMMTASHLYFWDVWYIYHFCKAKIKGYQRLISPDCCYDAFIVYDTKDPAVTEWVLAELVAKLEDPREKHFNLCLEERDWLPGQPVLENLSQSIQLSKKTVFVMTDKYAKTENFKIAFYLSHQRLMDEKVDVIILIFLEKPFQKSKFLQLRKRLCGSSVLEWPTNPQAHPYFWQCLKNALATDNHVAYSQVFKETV
The experiment in a line: TLR7 inhibition reporter assay (HEK-Blue cells, secreted embryonic alkaline phosphatase reporter). The conditions noted are these: HEK-Blue cells overexpressing human TLR7, stimulated with gardiquimod 7.5 μM; read-out: TLR 7 IC50. The gist of the method:
as §1

Setting [1] is: HEK-Blue cells overexpressing human TLR9, stimulated with ODN2006 5 nM, read-out: TLR 9 IC50.
Where [2] appears, read: HEK-Blue human TLR9 reporter cells.
[3] abbreviates: HEK-Blue cells overexpressing human TLR9, stimulated with ODN2006 5 nM, 22 hour incubation, reporter readout.

In general, IC50 refers to the concentration that gives 50% inhibition. Take `Cn1c(-c2ccc(S(C)(=O)=O)cc2)nc2c(F)cc(C3CCN(C4CC5CCC(C4)N5C4CCOCC4)CC3)cc21` (single isomer, unassigned) [Example 288, 4-fluoro-1-methyl-2-(4-(methylsulfonyl)phenyl)-6-(1-(8-(tetrahydro-2H-pyran-4-yl)-8-azabicyclo[3.2.1]octan-3-yl)piperidin-4-yl)-1H-benzo[d]imidazole]: the IC50 at human TLR8 was > 50000 nM; on human TLR9 (setting [1]) it was 105 nM; on human TLR9 (setting [2]), 110 nM; on human TLR7, 31700 nM.

Consider `COc1ccc(-c2nc3ccc(C4CCN(C5CCN(CC(C)C)CC5)CC4)cc3[nH]2)cc1OC` [Example 28, 2-(3,4-dimethoxyphenyl)-6-(1′-isobutyl-[1,4′-bipiperidin]-4-yl)-1H-benzo[d]imidazole], for which the IC50 at human TLR8 is > 50000 nM; against human TLR9 (setting [3]) it was 19 nM; at human TLR9 (setting [1]), 19 nM; on human TLR7, 2700 nM.

Consider `Cc1cc(C2CCN(C3CCN(CC(C)C)CC3)CC2)cc2c1nc(-c1ccc(S(C)(=O)=O)cc1)n2C` [Example 52, 6-(1′-isobutyl-[1,4′-bipiperidin]-4-yl)-1,4-dimethyl-2-(4-(methylsulfonyl)phenyl)-1H-benzo[d]imidazole], for which the IC50 was > 50000 nM at human TLR8, 130 nM against human TLR9 (setting [3]), 129 nM at human TLR9 (setting [1]) and 4800 nM at human TLR7.

For `COc1ccc(-c2nc3c(C)cc(C4CCN(C5CC6(C5)CN(CC(C)C)C6)CC4)cc3n2C)cc1OC` [Example 47, 2-(3,4-dimethoxyphenyl)-6-(1-(2-isobutyl-2-azaspiro[3.3]heptan-6-yl)piperidin-4-yl)-1,4-dimethyl-1H-benzo[d]imidazole tris(2,2,2-trifluoroacetate)], the IC50 at human TLR8 was > 50000 nM; against human TLR9 (setting [3]), 13 nM; on human TLR9 (setting [1]), 13 nM; on human TLR7 it was 7200 nM.

For the compound `COc1ccc(-c2nc3c(C)cc(C4CCN(C5CC6(C5)CN(C5CCC5)C6)CC4)cc3n2C)cc1OC` [Example 49, 6-(1-(2-cyclobutyl-2-azaspiro[3.3]heptan-6-yl)piperidin-4-yl)-2-(3,4-dimethoxyphenyl)-1,4-dimethyl-1H-benzo[d]imidazole], the IC50 at human TLR8 is > 50000 nM; against human TLR9 (setting [3]), 65 nM; on human TLR9 (setting [1]), 65 nM; at human TLR7, 5800 nM.

For the compound `CCOP(=O)(OCC)c1ccc(-c2nc3c(C)cc(C4CCN(C5CCN(C(C)C)CC5)CC4)cc3n2C)cc1` [Example 420, diethyl(4-(6-(1′-isopropyl-[1,4′-bipiperidin]-4-yl)-1,4-dimethyl-1H-benzo[d]imidazol-2-yl)phenyl)phosphonate], the IC50 was 42200 nM at human TLR8, 140 nM against human TLR9 (setting [3]), 136 nM at human TLR9 (setting [1]) and > 50000 nM at human TLR7.

As to `CN(C)C1CCN(Cc2ccc(-c3ccc4nc(-c5ccccc5S(C)(=O)=O)n(C)c4c3)cc2)CC1` [Example 379, N,N-dimethyl-1-(4-(1-methyl-2-(2-(methylsulfonyl)phenyl)-1H-benzo[d]imidazol-6-yl)benzyl)piperidin-4-amine], the IC50 on human TLR8 came out at 18800 nM; against human TLR9 (setting [3]), 98 nM; on human TLR9 (setting [1]), 98 nM; at human TLR7 it was 1000 nM.

For the compound `CC(C)CN1CCC(N2CCC(c3cc(F)c4c(c3)nc(-c3ccc(S(C)(=O)=O)cc3)n4C)CC2)CC1` [Example 201, 7-fluoro-5-(1′-isobutyl-[1,4′-bipiperidin]-4-yl)-1-methyl-2-(4-(methylsulfonyl)phenyl)-1H-benzo[d]imidazole], the IC50 was > 50000 nM on human TLR8, 97 nM at human TLR9, 97 nM on human TLR9 (setting [1]) and 14400 nM on human TLR7.

With `CC(C)N1CCCC(N2CCC(c3cc(F)c4nc(-c5ccc(S(C)(=O)=O)cc5)n(C)c4c3)CC2)CC1` (single isomer, unassigned) [Example 295, 4-fluoro-6-(1-(1-isopropylazepan-4-yl)piperidin-4-yl)-1-methyl-2-(4-(methylsulfonyl)phenyl)-1H-benzo[d]imidazole], the IC50 on human TLR8 is > 50000 nM; on human TLR9 (setting [1]), 24 nM; against human TLR9 (setting [2]) it was 24 nM; on human TLR7, 700 nM.

Take `CC(C)N1CCC(N2CCC(c3ccc4c(nc(-c5ccc(S(C)(=O)=O)cc5)n4C)c3F)CC2)CC1` [Example 88, 4-fluoro-5-(1′-isopropyl-[1,4′-bipiperidin]-4-yl)-1-methyl-2-(4-(methylsulfonyl)phenyl)-1H-benzo[d]imidazole]: the IC50 at human TLR8 was > 50000 nM; against human TLR9 (setting [3]), 360 nM; on human TLR9 (setting [1]), 363 nM; on human TLR7, > 50000 nM.
